82 compounds from article PMC12040169 (PLOS Biology, 2025) can be followed below.

The data set is described as follows: in vitro. The conditions noted are these: human, hela cells, % viability.
Consider `O=C(C1CCC1)N1C2CCC1Cn1c(nc3ccccc3c1=O)C2` (stereo not shown) [CBK284453], for which the viability (commonly a read-out of living cells in per cent, often relative to untreated cells) at 28.5 h, 10 µM stood at 91.5%.
The same measure for `CN1CCC2(CCC1=O)CC(NC(=O)C1CC1)c1ccccc1O2` (stereo not shown) [CBK284455]: 93.3%; for `O=C(CCn1cccn1)N1CCC(c2cc3ncccc3[nH]2)CC1` [CBK284457]: 83.6%.
On to `O=C(CCc1ccncc1)N1CCC(c2cc3ncccc3[nH]2)CC1` [CBK284460], for which the viability at 28.5 h, 10 µM was determined as 84.3%.
With `Cc1cc(-c2ccc(=O)n(CCNC(=O)c3cccs3)n2)c(C)o1` [CBK284461], the viability at 28.5 h, 10 µM came out at 92.3%.
With `O=C1CCN(Cc2ccccc2)CCN1Cc1cccc(F)c1` [CBK284466], the viability at 28.5 h, 10 µM was 96.4%.
Turning to `Cc1ncsc1C(=O)N1CCCC(n2cnc3cc(F)ccc32)C1` (stereo not shown) [CBK284470], the viability at 28.5 h, 10 µM was 91.2%.
For `Cc1ccc2c(c1)oc(=O)n2CCNC(=O)Cc1c[nH]c2ccccc12` [CBK284473], the viability at 28.5 h, 10 µM is 101%.
As for `O=C(c1cccnc1)N1CCCC(n2cnc3cc(F)ccc32)C1` (stereo not shown) [CBK284474], the viability at 28.5 h, 10 µM was determined as 85.6%.
In the case of `O=C(c1ccco1)N1CCCC(n2cnc3cc(F)ccc32)C1` (stereo not shown) [CBK284475], the viability at 28.5 h, 10 µM was 94.8%.
For `O=C(c1ccccn1)N1CCCC(n2cnc3cc(F)ccc32)C1` (stereo not shown) [CBK284476], the viability at 28.5 h, 10 µM turned out to be 92.7%.
On to `O=C(c1cscn1)N1CCCC(n2cnc3cc(F)ccc32)C1` (stereo not shown) [CBK284477], for which the viability at 28.5 h, 10 µM is 90.8%.
Turning to `Clc1ccc2c(c1)NC(c1ccco1)N1CCN=C21` (stereo not shown) [CBK284479], the viability at 28.5 h, 10 µM was 84.8%.
Regarding `Cc1cc(-c2cnoc2C2CCCN(C(=O)c3cccs3)C2)on1` (stereo not shown) [CBK284480], the viability at 28.5 h, 10 µM amounted to 102%.
As for `CC1CCc2nn(CCNC(=O)c3ccco3)c(=O)cc2C1` (stereo not shown) [CBK284481], the viability at 28.5 h, 10 µM was found to be 95.2%.
Take `CC1CCc2nn(CCNC(=O)Cc3ccccc3F)c(=O)cc2C1` (stereo not shown) [CBK284482]: the viability at 28.5 h, 10 µM worked out at 97.2%.
As for `CC1CCc2nn(CCNC(=O)c3cccs3)c(=O)cc2C1` (stereo not shown) [CBK284483], the viability at 28.5 h, 10 µM was determined as 97.4%.
In the case of `CC1CCc2nn(CCNC(=O)C3CCCC3)c(=O)cc2C1` (stereo not shown) [CBK284484] it was 91.1%; in that of `c1csc(C2Nc3ccccc3C3=NCCCN32)c1` (stereo not shown) [CBK284489], 99.2%; in that of `O=C(c1ccco1)N1CCC(c2ccnc3nc4ccccc4n23)CC1` [CBK284490], 87.2%.
In the case of `Cc1ncc2c(n1)[C@@H]1CN(C(=O)Cc3cccs3)C[C@@H]1CC2` [CBK284491], the viability at 28.5 h, 10 µM was 89.3%.
Turning to `Cc1cc(-c2sc(N)nc2-c2cccs2)on1` [CBK284492], the viability at 28.5 h, 10 µM came out at 87.9%.
In the case of `O=C(Nc1nc(-c2ccco2)c(-c2ccncc2)s1)C1CC1` [CBK284494] it was 87.4%; in that of `CCC(=O)Nc1nc(-c2ccco2)c(-c2ccncc2)s1` [CBK284495], 101%.
As for `O=C(C1CCC1)N1CCC(c2onc3c2CCCCC3)CC1` [CBK284496], the viability at 28.5 h, 10 µM is 104%.
In the case of `CCS(=O)(=O)N1CCC(c2onc3c2CCCCC3)CC1` [CBK284497] it was 93.5%; in that of `c1cncc(-c2ncc(-c3ccco3)c(-c3ccco3)n2)c1` [CBK284503], 93.5%.
Regarding `O=C(C1CCC1)N1CCC2(CC1)Nc1cccnc1-n1cccc12` [CBK284505], the viability at 28.5 h, 10 µM came out at 92.5%.
The same measure for `CC(C)(C)C(=O)N1CCC2(CC1)Nc1cccnc1-n1cccc12` [CBK284507]: 95.6%; for `Cc1cc(C(=O)N2CC3CCCC(O)(c4cccn4C)C3C2)c(C)[nH]1` (stereo not shown) [CBK284514]: 93.9%; for `N=C1OC2CSCC2N1C(=O)Cc1ccccc1Cl` (stereo not shown) [CBK284516]: 106%.
Regarding `N=C1OC2CSCC2N1C(=O)Cc1c(F)cccc1Cl` (stereo not shown) [CBK284517], the viability at 28.5 h, 10 µM is 84.9%.
As to `Cc1cc(-c2ccc(=O)n(CCNC(=O)C3CCC3)n2)c(C)o1` [CBK284520], the viability at 28.5 h, 10 µM was determined as 110%.
The same measure for `Cc1cc(-c2ccc(=O)n(CCNC(=O)C3CC3)n2)c(C)o1` [CBK284521]: 93.2%; for `CC(C)NC(=O)c1ccc(-n2cccn2)c(C#Cc2cccnc2)c1` [CBK284523]: 94.3%.
In the case of `COC(=O)c1ccc(-n2cccn2)c(C#Cc2cccnc2)c1` [CBK284525], the viability at 28.5 h, 10 µM is 95.2%.
Regarding `C[C@@H](Cn1nc2c(cc1=O)CCCC2)NC(=O)Cc1ccc(F)cc1` [CBK284526], the viability at 28.5 h, 10 µM was determined as 100%.
As for `C[C@@H](Cn1nc2c(cc1=O)CCCC2)NC(=O)Cc1cccc(F)c1` [CBK284527], the viability at 28.5 h, 10 µM stood at 95.9%.
Regarding `O=C(c1ccc(F)cc1)N1CCC[C@@H]1Cn1c(=O)oc2ccccc21` [CBK284529], the viability at 28.5 h, 10 µM was found to be 89.4%.
Consider `O=C(Cc1ccsc1)N1CCC[C@@H]1Cn1c(=O)oc2ccccc21` [CBK284530], for which the viability at 28.5 h, 10 µM is 91.2%.
As for `CC[C@H](Cn1c(=O)oc2ccccc21)NC(=O)Cc1cccs1` [CBK284537], the viability at 28.5 h, 10 µM was 84.7%.
As to `CC[C@H](Cn1c(=O)oc2ccccc21)NC(=O)C1CCCC1` [CBK284542], the viability at 28.5 h, 10 µM was found to be 97.2%.
With `CC[C@H](Cn1c(=O)oc2ccccc21)NC(=O)Cc1ccsc1` [CBK284543], the viability at 28.5 h, 10 µM was 89.2%.
On to `C[C@H](Cn1nc2c(cc1=O)CCCCC2)NC(=O)C1CCCC1` [CBK284546], for which the viability at 28.5 h, 10 µM was determined as 83.2%.
As to `C[C@@H](Cn1nc2c(cc1=O)CCCC2)NC(=O)c1ccco1` [CBK284559], the viability at 28.5 h, 10 µM is 92.2%.
In the case of `C[C@@H](Cn1nc2c(cc1=O)CCCC2)NC(=O)c1ccccc1F` [CBK284560] it was 92.5%; in that of `C[C@@H](Cn1nc2c(cc1=O)CCCC2)NC(=O)c1cccc(F)c1` [CBK284561], 87.5%; in that of `C[C@@H](Cn1nc2c(cc1=O)CCCC2)NC(=O)c1ccc(F)cc1` [CBK284562], 91.3%.
In the case of `Cc1cccc(C(=O)N[C@@H](C)Cn2nc3c(cc2=O)CCCC3)c1` [CBK284563] it was 89.1%; in that of `Cc1nc2nc(-c3ccc(F)cc3F)cn2nc1C` [CBK284564], 90.3%.
Consider `CCN1C(=O)c2ccccc2C(=O)[C@@]2(C)CN(C(=O)C3CC3)C[C@@H]12` [CBK284567], for which the viability at 28.5 h, 10 µM came to 81.5%.
In the case of `Cc1cc(C)n(CCCC(=O)N2C[C@H]3CCc4c[nH]nc4[C@H]3C2)n1` [CBK284573] it was 101%.
Consider `CCOC(=O)C1(Cc2cc(-c3cccc(F)c3)no2)CCCNC1` (stereo not shown) [CBK284578], for which the viability at 28.5 h, 10 µM is 87.3%.
`CCOC(=O)C1(Cc2cc(-c3ccccc3)no2)CCCNC1` (stereo not shown) [CBK284583]: the viability at 28.5 h, 10 µM was determined as 98.9%.
As for `CC(=O)N1C[C@@H](c2ccsc2)[C@@H]2CN(Cc3ccccc3)CC[C@@H]21` [CBK284585], the viability at 28.5 h, 10 µM came out at 109%.
For `CC(=O)N1C[C@H](c2ccsc2)[C@H]2CN(Cc3cccs3)CC[C@H]21` [CBK284586], the viability at 28.5 h, 10 µM turned out to be 109%.
Take `CN1C[C@@H](C(=O)N2CCCCCC2)[C@@]2(CCc3ccccc3C2=O)C1` [CBK284590]: the viability at 28.5 h, 10 µM is 87%.
As to `CC(=O)NCCn1cc2c(n1)[C@H]1CN(C(=O)CC(C)(C)C)C[C@H]1CC2` [CBK284592], the viability at 28.5 h, 10 µM was 93.8%.
On to `Cc1csc2c(C3CCCN(C(=O)c4cnn(C)c4)C3)nc(C)n12` (stereo not shown) [CBK284595], for which the viability at 28.5 h, 10 µM was 98.5%.
On to `COC1CCCC(C(=O)N2CCC(c3onc4c3CCCC4)CC2)C1` (stereo not shown) [CBK284598], for which the viability at 28.5 h, 10 µM is 94.3%.
Regarding `O=C(Cc1ccccc1F)N1CCCC(c2cnccn2)C1` (stereo not shown) [CBK284601], the viability at 28.5 h, 10 µM was 96.8%.
The same measure for `COCC(=O)N1C2CCC(C2)[C@@H]1COc1ccc(F)cc1` (stereo partly shown) [CBK284603]: 109%.
In the case of `COCCC(=O)N1C2CCC(C2)[C@@H]1COc1ccc(F)cc1` (stereo partly shown) [CBK284604] it was 96%; in that of `O=C(Cc1cccs1)N1CCC(c2nnc3n2CCCCC3)CC1` [CBK284606], 83.1%; in that of `O=C(c1ccco1)N1CCC(c2nnc3n2CCCCC3)CC1` [CBK284607], 94.3%.
In the case of `Cc1ccc(C2(O)CC3CCC(C2)N3C(=O)c2ccncc2)cc1` (stereo not shown) [CBK284609], the viability at 28.5 h, 10 µM came out at 100%.
With `O=C(C1CCCCC1)N1CCC(c2nnc3n2CCCCC3)CC1` [CBK284613], the viability at 28.5 h, 10 µM was determined as 92.7%.
For `CCC(CC)C(=O)N1CCC(c2nnc3n2CCCCC3)CC1` [CBK284614], the viability at 28.5 h, 10 µM stood at 86.6%.
Turning to `O=C(C1CCCCC1)N1CC(n2nc(-c3ccccc3)ccc2=O)C1` [CBK284616], the viability at 28.5 h, 10 µM was 92.8%.
In the case of `O=C(C1CCCC1)N1CC(n2nc(-c3ccccc3)ccc2=O)C1` [CBK284617], the viability at 28.5 h, 10 µM is 93.9%.
As to `CCC(C(=O)N1CCc2nc(C)[nH]c(=O)c2C1)c1ccccc1` (stereo not shown) [CBK284618], the viability at 28.5 h, 10 µM amounted to 91.6%.
Take `Cc1cccc(CN2CCC3(CCc4ccccc4C(=O)N3)C2)n1` (stereo not shown) [CBK284619]: the viability at 28.5 h, 10 µM was determined as 106%.
In the case of `O=C1NC2(CCc3ccccc31)CCN(Cc1cccnc1)C2` (stereo not shown) [CBK284620], the viability at 28.5 h, 10 µM amounted to 96.5%.
Regarding `Cc1cc(C)c2c(NCc3ccc(C)o3)n[nH]c2n1` [CBK284621], the viability at 28.5 h, 10 µM is 94.9%.
For `CC(C)(C)C(=O)N1CC(n2nc(-c3ccccc3)ccc2=O)C1` [CBK284623], the viability at 28.5 h, 10 µM is 92.1%.
For the compound `O=C(C1CCC1)N1CC(n2nc(-c3ccccc3)ccc2=O)C1` [CBK284624], the viability at 28.5 h, 10 µM was found to be 79.2%.
In the case of `O=C(c1cccs1)N1CCC(c2nnc3n2CCCCC3)CC1` [CBK284626], the viability at 28.5 h, 10 µM amounted to 95.7%.
`O=C(c1cccc(F)c1)N1CCC(c2nnc3n2CCCCC3)CC1` [CBK284627]: the viability at 28.5 h, 10 µM is 103%.
Take `O=C(CC1CCCC1)N1CCC(c2nnc3n2CCCCC3)CC1` [CBK284630]: the viability at 28.5 h, 10 µM was found to be 84.6%.
Take `O=C(CC1CCCC1)N1CCCC(c2nnc(-c3cccs3)o2)C1` (stereo not shown) [CBK284631]: the viability at 28.5 h, 10 µM is 94.3%.
On to `O=C(Cc1ccccc1F)NCc1nnc(-c2cccs2)o1` [CBK284632], for which the viability at 28.5 h, 10 µM came to 82%.
For `O=C(NCc1nnc(-c2cccs2)o1)C1(c2ccccc2)CC1` [CBK284635], the viability at 28.5 h, 10 µM is 96.2%.
